According to US9227971B2, “Pyrazolo[1,5-a]pyrimidine compounds as mTOR inhibitors” (Merck Sharp & Dohme Corp., priority 2010, dated 2016):
Like-named read-outs stand apart in the source and are kept apart here.

What was measured:
[1] = system: phosphorylated 4E-BP1 Thr37/46 (p4E-BP1 Thr37/46), mTORC1 activity, PC3 cells; assay: mTOR target engagement assay, immunofluorescent cell-based, p4E-BP1 Thr37/46 readout (mTORC1 activity); settings: read-out: p4E-BP1 Thr37/46 IC50
Procedure, shortened: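 Read-out is fluorescence intensity of immunostained p4E-BP1 Thr37/46 in fixed PC3 cells, fitted to a logistic curve for IC50 with DMSO-only wells as top. Cells had been exposed to serial compound dilutions for ninety minutes at 37° C in 5% FBS medium with 0.25% DMSO.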

[2] = system: phosphorylated AKT Ser473 (pAKT S473), mTORC2 activity, PC3 cells; assay: mTOR target engagement assay, immunofluorescent cell-based, pAKT S473 readout (mTORC2 activity)
Procedure, shortened: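 After blocking, cells were stained overnight at 4 °C with anti-pAKT S473 antibody, then a fluorescent secondary; inhibition was read as reduced fluorescence intensity.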

[3] = Homo sapiens, PC-3, PC3 cells, compound treatment ninety minutes at 37° C.
[4] = Homo sapiens, PC-3, Table 6-1, PC3 cells
[5] = Homo sapiens, PC-3, Table 3-1, PC3 cells

N#Cc1ncc(-c2cnn3c(N)c(C4CC4)c([C@@H]4C[C@H]5CC[C@@H](C4)N5C(=O)c4nnc[nH]4)nc23)cn1 [Compound 8.96, 5-(5-((1R,3s,5S)-8-(4H-1,2,4-triazole-3-carbonyl)-8-azabicyclo[3.2.1]octan-3-yl)-7-amino-6-cyclopropylpyrazolo[1,5-a]pyrimidin-3-yl)pyrimidine-2-carbonitrile]
IC50 ([1]; Homo sapiens, PC-3, PC3 cells): 1 to 10 µM
IC50 ([2]; Homo sapiens, PC-3, PC3 cells): 1 to 10 µM

CC(=O)c1c([C@@H]2C[C@H]3CC[C@@H](C2)N3C(=O)c2nnc[nH]2)nc2c(-c3cnn(-c4ccccc4)c3)cnn2c1N [Compound 1.1.143, 1-(5-((1R,3s,5S)-8-(4H-1,2,4-triazole-3-carbonyl)-8-azabicyclo[3.2.1]octan-3-yl)-7-amino-3-(1-phenyl-1H-pyrazol-4-yl)pyrazolo[1,5-a]pyrimidin-6-yl)ethanone]
IC50 [1, 3]: 0.001 to 0.1 µM
IC50 [2, 3]: 0.001 to 0.1 µM

CC(=O)c1c([C@@H]2C[C@H]3CC[C@@H](C2)N3C(=O)c2cc(N)n[nH]2)nc2c(-c3ccc(-c4ccc(F)cc4F)nc3)cnn2c1N [Compound 1.1.166, 1-(7-amino-5-((1R,3s,5S)-8-(3-amino-1H-pyrazole-5-carbonyl)-8-azabicyclo[3.2.1]octan-3-yl)-3-(6-(2,4-difluorophenyl)pyridin-3-yl)pyrazolo[1,5-a]pyrimidin-6-yl)ethanone]
IC50 [1, 3]: 0.001 to 0.1 µM
IC50 [2, 3]: 0.001 to 0.1 µM

Nc1c(C2CC2)c([C@@H]2C[C@H]3CC[C@@H](C2)N3C(=O)c2nnc[nH]2)nc2c(-c3ccc(-c4ncc[nH]4)c(F)c3)cnn12 [Compound 6.36, ((1R,3s,5S)-3-(7-amino-6-cyclopropyl-3-(3-fluoro-4-(1H-imidazol-2-yl)phenyl)pyrazolo[1,5-a]pyrimidin-5-yl)-8-azabicyclo[3.2.1]octan-8-yl)(4H-1,2,4-triazol-3-yl)methanone]
IC50 [1, 4]: 0.001 to 0.1 µM
IC50 [2, 4]: 0.001 to 0.1 µM

CC(=O)c1c([C@@H]2C[C@H]3CC[C@@H](C2)N3C(=O)c2nnc[nH]2)nc2c(-c3cnc4ccc(CO)cc4c3)cnn2c1N [Compound 1.1.126, 1-(5-((1R,3s,5S)-8-(4H-1,2,4-triazole-3-carbonyl)-8-azabicyclo[3.2.1]octan-3-yl)-7-amino-3-(6-(hydroxymethyl)quinolin-3-yl)pyrazolo[1,5-a]pyrimidin-6-yl)ethanone]
IC50 [1, 3]: 1 to 10 µM
IC50 [2, 3]: 1 to 10 µM

CC(=O)c1c([C@@H]2C[C@H]3CC[C@@H](C2)N3C(=O)CO)nc2c(-c3ccc(C)nc3)cnn2c1N [Compound 1.1.90, 1-((1R,3s,5S)-3-(6-acetyl-7-amino-3-(6-methylpyridin-3-yl)pyrazolo[1,5-a]pyrimidin-5-yl)-8-azabicyclo[3.2.1]octan-8-yl)-2-hydroxyethanone]
IC50 [1, 3]: 1 to 10 µM
IC50 [2, 3]: 1 to 10 µM

COCCOCc1ccc(-c2cnn3c(N)c(C(C)=O)c([C@@H]4C[C@H]5CC[C@@H](C4)N5C(=O)c4nnc[nH]4)nc23)cn1 [Compound 7.31, 1-(5-((1R,3s,5S)-8-(4H-1,2,4-triazole-3-carbonyl)-8-azabicyclo[3.2.1]octan-3-yl)-7-amino-3-(6-((2-methoxyethoxy)methyl)pyridin-3-yl)pyrazolo[1,5-a]pyrimidin-6-yl)ethanone]
IC50 [1, 3]: 1 to 10 µM
IC50 [2, 3]: 1 to 10 µM

CS(=O)(=O)c1c([C@@H]2C[C@H]3CC[C@@H](C2)N3C(=O)c2nnc[nH]2)nc2c(-c3ccc(-c4ccccn4)nc3)cnn2c1N [Compound 3.102, ((1R,3s,5S)-3-(3-(2,2′-bipyridin-5-yl)-7-amino-6-(methylsulfonyl)pyrazolo[1,5-a]pyrimidin-5-yl)-8-azabicyclo[3.2.1]octan-8-yl)(4H-1,2,4-triazol-3-yl)methanone]
IC50 [1, 5]: 0.001 to 0.1 µM
IC50 [2, 5]: 0.001 to 0.1 µM

CC(=O)c1c([C@@H]2C[C@H]3CC[C@@H](C2)N3C(=O)c2cc[nH]n2)nc2c(-c3ccc(C(O)C(F)(F)F)nc3)cnn2c1N (stereo partly drawn) [Compound 7.66, 1-(5-((1R,3s,5S)-8-(1H-pyrazole-3-carbonyl)-8-azabicyclo[3.2.1]octan-3-yl)-7-amino-3-(6-(2,2,2-trifluoro-1-hydroxyethyl)pyridin-3-yl)pyrazolo[1,5-a]pyrimidin-6-yl)ethanone]
IC50 ([1]; Homo sapiens, PC-3, PC3 cells): 0.1 to 1 µM
IC50 ([2]; Homo sapiens, PC-3, PC3 cells): 1 to 10 µM

CS(=O)(=O)c1c([C@@H]2C[C@H]3CC[C@@H](C2)N3C(=O)c2cnn[nH]2)nc2c(-c3ccc(-c4ccccc4)nc3)cnn2c1N [Compound 3.3, ((1R,3s,5S)-3-(7-amino-6-(methylsulfonyl)-3-(6-phenylpyridin-3-yl)pyrazolo[1,5-a]pyrimidin-5-yl)-8-azabicyclo[3.2.1]octan-8-yl)(1H-1,2,3,-triazol-5-yl)methanone]
IC50 [1, 5]: 0.1 to 1 µM
IC50 [2, 5]: 0.001 to 0.1 µM

COc1cc(F)cc2cc(-c3cnn4c(N)c(C(C)=O)c([C@@H]5C[C@H]6CC[C@@H](C5)N6C(=O)c5nnc[nH]5)nc34)cnc12 [Compound 1.1.182, 1-(5-((1R,3r,5S)-8-(4H-1,2,4-triazole-3-carbonyl)-8-azabicyclo[3.2.1]octan-3-yl)-7-amino-3-(6-fluoro-8-methoxyquinolin-3-yl)pyrazolo[1,5-a]pyrimidin-6-yl)ethanone]
IC50 [1, 3]: 0.001 to 0.1 µM
IC50 [2, 3]: 0.001 to 0.1 µM

CS(=O)(=O)c1c([C@@H]2C[C@H]3CC[C@@H](C2)N3C(=O)CO)nc2c(-c3cn[nH]c3)cnn2c1N [Compound 3.114, 1-((1R,3s,5S)-3-(7-amino-6-(methylsulfonyl)-3-(1H-pyrazol-4-yl)pyrazolo[1,5-a]pyrimidin-5-yl)-8-azabicyclo[3.2.1]octan-8-yl)-1-hydroxyethanone]
IC50 [1, 5]: > 10 µM
IC50 [2, 5]: > 10 µM

COc1ccc(-c2ccc(-c3cnn4c(N)c(C(C)=O)c([C@H]5C[C@H]6CC[C@@H](C5)N6C(=O)c5nnc[nH]5)nc34)cn2)cc1F [Compound 1.1.54, 1-(5-((1R,3r,5S)-8-(4H-1,2,4-triazole-3-carbonyl)-8-azabicyclo[3.2.1]octan-3-yl)-7-amino-3-(6-(3-fluoro-4-methoxyphenyl)pyridin-3-yl)pyrazolo[1,5-a]pyrimidin-6-yl)ethanone]
IC50 [1, 3]: 0.1 to 1 µM
IC50 [2, 3]: 0.1 to 1 µM

CC(=O)c1c([C@@H]2C[C@H]3CC[C@@H](C2)N3C(=O)C(C)(CO)CO)nc2c(-c3ccc(-c4ccccc4)nc3)cnn2c1N [Compound 1.1.1, 1-((1R,3s,5S)-3-(6-acetyl-7-amino-3-(6-phenylpyridin-3-yl)pyrazolo[1,5-a]pyrimidin-5-yl)-8-azabicyclo[3.2.1]octan-8-yl)-3-hydroxy-2-(hydroxymethyl)-2-methylpropan-1-one]
IC50 [1, 3]: 0.1 to 1 µM
IC50 [2, 3]: 0.1 to 1 µM

CC(=O)c1c([C@@H]2C[C@H]3CC[C@@H](C2)N3C(=O)c2nnc[nH]2)nc2c(-c3ccc(N4NCCC4=O)nc3)cnn2c1N [Compound 8.19, 2-(5-(5-((1R,3s,5S)-8-(4H-1,2,4-triazole-3-carbonyl)-8-azabicyclo[3.2.1]octan-3-yl)-6-acetyl-7-aminopyrazolo[1,5-a]pyrimidin-3-yl)pyridin-2-yl)pyrazolidin-3-one]
IC50 ([1]; Homo sapiens, PC-3, PC3 cells): 0.1 to 1 µM
IC50 ([2]; Homo sapiens, PC-3, PC3 cells): 0.1 to 1 µM

Cn1cc(-c2cnn3c(N)c(S(C)(=O)=O)c([C@@H]4C[C@H]5CC[C@@H](C4)N5C(=O)c4nnc[nH]4)nc23)cn1 [Compound 3.111, ((1R,3s,5S)-3-(7-amino-3-(1-methyl-1H-pyrazol-4-yl)-6-(methylsulfonyl)pyrazolo[1,5-a]pyrimidin-5-yl)-8-azabicyclo[3.2.1]octan-8-yl)(4H-1,2,4-triazol-3-yl)methanone]
IC50 [1, 5]: 1 to 10 µM
IC50 [2, 5]: 1 to 10 µM

COc1ccc(-c2ccc(-c3cnn4c(N)c(S(C)(=O)=O)c([C@@H]5C[C@H]6CC[C@@H](C5)N6C(=O)c5nnc[nH]5)nc34)cn2)c(F)c1 [Compound 3.32, ((1R,3s,5S)-3-(7-amino-3-(6-(2-fluoro-4-methoxyphenyl)pyridin-3-yl)-6-(methylsulfonyl)pyrazolo[1,5-a]pyrimidin-5-yl)-8-azabicyclo[3.2.1]octan-8-yl)(4H-1,2,4-triazol-3-yl)methanone]
IC50 [1, 5]: 0.001 to 0.1 µM
IC50 [2, 5]: 0.001 to 0.1 µM

CS(=O)(=O)c1c([C@@H]2C[C@H]3CC[C@@H](C2)N3C(=O)c2nnc[nH]2)nc2c(-c3ccc(-c4ccncc4)nc3)cnn2c1N [Compound 3.64, ((1R,3s,5S)-3-(3-(2,4′-bipyridin-5-yl)-7-amino-6-(methylsulfonyl)pyrazolo[1,5-a]pyrimidin-5-yl)-8-azabicyclo[3.2.1]octan-8-yl)(4H-1,2,4-triazol-3-yl)methanone]
IC50 ([1]; Table 3-1, PC3 cells): 1 to 10 µM
IC50 ([2]; Table 3-1, PC3 cells): 1 to 10 µM

CC(=O)c1c([C@@H]2C[C@H]3CC[C@@H](C2)N3C(=O)c2nnc(C)[nH]2)nc2c(-c3ccc(C(N)(C(F)(F)F)C(F)(F)F)nc3)cnn2c1N [Compound 7.82, 1-(7-amino-3-(6-(2-amino-1,1,1,3,3,3-hexafluoropropan-2-yl)pyridin-3-yl)-5-((1R,3s,5S)-8-(5-methyl-4H-1,2,4-triazole-3-carbonyl)-8-azabicyclo[3.2.1]octan-3-yl)pyrazolo[1,5-a]pyrimidin-6-yl)ethanone]
IC50 ([1]; Homo sapiens, PC-3, PC3 cells): 1 to 10 µM
IC50 ([2]; Homo sapiens, PC-3, PC3 cells): 1 to 10 µM

CC(=O)c1c([C@@H]2C[C@H]3CC[C@@H](C2)N3C(=O)c2cc[nH]c2)nc2c(-c3ccc(-c4ccccc4)nc3)cnn2c1N [Compound 1.1.41, 1-(5-((1R,3s,5S)-8-(1H-pyrrole-3-carbonyl)-8-azabicyclo[3.2.1]octan-3-yl)-7-amino-3-(6-phenylpyridin-3-yl)pyrazolo[1,5-a]pyrimidin-6-yl)ethanone]
IC50 [1, 3]: 0.001 to 0.1 µM
IC50 [2, 3]: 0.001 to 0.1 µM
